The source of these data is ChEMBL document CHEMBL4813916, “Synthesis and characterization of new potent TLR7 antagonists based on analysis of the binding mode using biomolecular simulations” (Eur J Med Chem, 2021).

One test has as its target T1, Toll-like receptor 7 (Homo sapiens, UniProt Q9NYK1).
T1 sequence (Q9NYK1 whole entry): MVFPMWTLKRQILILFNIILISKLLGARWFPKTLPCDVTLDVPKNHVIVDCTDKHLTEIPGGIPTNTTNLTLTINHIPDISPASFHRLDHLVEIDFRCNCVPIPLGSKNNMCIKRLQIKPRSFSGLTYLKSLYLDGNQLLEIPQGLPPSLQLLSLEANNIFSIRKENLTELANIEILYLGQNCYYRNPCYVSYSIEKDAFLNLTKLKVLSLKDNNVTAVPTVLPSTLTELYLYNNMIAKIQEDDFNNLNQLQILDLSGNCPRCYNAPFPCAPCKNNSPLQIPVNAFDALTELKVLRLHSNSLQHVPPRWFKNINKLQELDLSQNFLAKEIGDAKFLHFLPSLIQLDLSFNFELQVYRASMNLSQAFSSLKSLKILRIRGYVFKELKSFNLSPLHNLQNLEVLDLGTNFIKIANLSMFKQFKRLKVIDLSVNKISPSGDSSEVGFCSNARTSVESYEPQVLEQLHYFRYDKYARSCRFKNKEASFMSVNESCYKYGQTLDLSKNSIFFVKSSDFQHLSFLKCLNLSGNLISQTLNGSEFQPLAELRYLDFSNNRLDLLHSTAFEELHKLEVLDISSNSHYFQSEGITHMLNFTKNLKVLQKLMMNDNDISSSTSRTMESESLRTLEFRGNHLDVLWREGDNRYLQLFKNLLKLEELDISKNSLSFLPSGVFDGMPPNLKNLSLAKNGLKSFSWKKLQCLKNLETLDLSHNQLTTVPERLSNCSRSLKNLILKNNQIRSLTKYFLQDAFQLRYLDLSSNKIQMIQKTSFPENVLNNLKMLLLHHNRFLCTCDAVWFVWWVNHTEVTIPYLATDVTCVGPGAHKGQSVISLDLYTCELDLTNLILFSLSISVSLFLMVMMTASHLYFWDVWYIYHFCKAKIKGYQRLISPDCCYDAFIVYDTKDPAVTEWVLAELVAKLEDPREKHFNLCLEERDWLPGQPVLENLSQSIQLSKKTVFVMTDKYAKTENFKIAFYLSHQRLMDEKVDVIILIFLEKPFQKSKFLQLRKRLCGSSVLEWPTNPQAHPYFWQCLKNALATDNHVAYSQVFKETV
Description: Antagonist activity at TLR7 (unknown origin).
On to `CCCSc1nc2c(O)nnc(O)c2n1Cc1ccccc1`, for which the concentration for half-maximal inhibition (IC50) amounted to 110 µM.
Take `NCc1ccc(C(=O)Nc2cccc(-c3nc4cc(OCCCN5CCCC5)ccc4o3)c2)cc1`: the half-maximal inhibitory concentration (IC50) stood at 66.2 µM.
Compound `CCCNc1nc2c(c(=O)n(C)c(=O)n2C)n1CC(C)C` yielded an IC50 of 660 µM.
Still for that read-out and setting: next, `Nc1ncnc2c1nc(Br)n2C[C@@H](O)CO`: 272 µM.
The compound `COC(=O)[C@H]1O[C@H](n2cnc3c(N)ncnc32)[C@H](O)[C@@H]1O` returned an IC50 greater than 1000 µM.
Same read-out and setting: the value for `COc1cc2c(N3CCN(C(=O)OC(C)(C)C)CC3)nc(N3CCN(C)CC3)nc2cc1OCc1ccccc1` was 10 µM; that for `CC(C)Cn1cnc2c(=O)oc3ccccc3c21` was 23 µM; that for `CCCCSc1nnc2n(N)c(=O)c3ccccc3n12` was 185 µM.
The compound `COc1cc2c(N3CCN(C(=O)c4ccccc4)CC3)nc(N(C)C)nc2cc1OC1CCCC1` yielded an IC50 of 10 µM.
For the compound `CCN(CC)CCn1cnc2c(=O)oc3ccccc3c21`, the IC50 is 37 µM.
For `CCSc1nc2c(N)ncnc2[nH]1`, half-maximal inhibition (IC50) was put at 253 µM.
`Nc1ncnc2c1ncn2CCO` showed a half-maximal inhibitory concentration (IC50) of 684 µM.

The target of the next test is T1, Toll-like receptor 7. Description: Antagonist activity at human TLR7 expressed in HEK-blue-HTLR7 cells assessed as inhibition of CL264-induced NFkappaB activation measured after 24 hrs by secreted alkaline phosphatase reporter assay. It is filed as cell-based.
Consider `COc1ccc(CNc2nc(N3CCNCC3)c3cc(OC)c(OCc4ccccc4)cc3n2)cc1`, for which the IC50 was determined as 27.8 µM.
Regarding `COc1cc2c(N(C)C)nc(NCCCN3CCN(C)CC3)nc2cc1OCCCN1CCCC1`, the half-maximal inhibitory concentration (IC50) is greater than 50 µM.
On the same count and under the same terms, the value for `COc1ccc(CNc2nc(N3CCN(C4CCCC4)CC3)c3cc(OC)c(OCCCN4CCCC4)cc3n2)cc1` was 1.83 µM; that for `COc1ccc(CNc2nc(N3CCN(C)CC3)c3cc(OC)c(OCc4ccccc4)cc3n2)cc1` was 19.9 µM.
